One experiment has as its target LATS1 (Homo sapiens (Human), UniProt O95835). In words: LATS1 biochemical assay (Table 1A, Compound Examples 1-290; method in the earlier part).
The test system of experiment [1] is YAP nuclear translocation in HaCaT cells. In words: YAP Translocation Assay (HaCaT Cells). Type of experiment: cell-based, human. The settings on record: Homo sapiens, 24 hours. An outline of the steps: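 HaCaT cells (20,000/well) in DMEM + 10% FBS were plated overnight at 37° C, then exposed to compound for 24 h at 37° C. Cells were fixed with PFA, permeabilized with 0.1% Triton/1.5% BSA and imaged by high-content imaging.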

The test system of experiment [2] is Phospho-YAP (SER127) in HaCaT cells. Briefly: pYAP HTRF Assay (HaCaT Cells). Type of experiment: cell-based, human. The settings on record: Homo sapiens, 2 hours. The protocol:
The pYAP HTRF assay was performed using the Phospho-YAP (SER127) 10000 test kit (CisBio, catalogue number 64YAPPEH) according to manufacturer's instructions. Briefly, HaCaT cells were suspended at 1.1×10^6 cells/mL in DMEM (no phenol red)+10% FBS with penicillin-streptomycin-glutamine. 5 μL of cells were dispensed into 1536 well white solid bottom, tissue culture treated plates (5500 cells/well), and incubated for 48 hours at 37° C. 50 nL test compound was transferred into the assay plates containing HaCaT cells using Pintool (GNF) and incubated for 2 hours. […] The plates were incubated overnight (20 hrs) at room temperature covered with metal lids. Plates were read on Pherastar (BMG Labtech) for HTRF (665 nm/620 nm).
For orientation: In TR-FRET formats the signal depends on donor and acceptor labels being close together.

LATS1, sequence (O95835 whole entry, looked up): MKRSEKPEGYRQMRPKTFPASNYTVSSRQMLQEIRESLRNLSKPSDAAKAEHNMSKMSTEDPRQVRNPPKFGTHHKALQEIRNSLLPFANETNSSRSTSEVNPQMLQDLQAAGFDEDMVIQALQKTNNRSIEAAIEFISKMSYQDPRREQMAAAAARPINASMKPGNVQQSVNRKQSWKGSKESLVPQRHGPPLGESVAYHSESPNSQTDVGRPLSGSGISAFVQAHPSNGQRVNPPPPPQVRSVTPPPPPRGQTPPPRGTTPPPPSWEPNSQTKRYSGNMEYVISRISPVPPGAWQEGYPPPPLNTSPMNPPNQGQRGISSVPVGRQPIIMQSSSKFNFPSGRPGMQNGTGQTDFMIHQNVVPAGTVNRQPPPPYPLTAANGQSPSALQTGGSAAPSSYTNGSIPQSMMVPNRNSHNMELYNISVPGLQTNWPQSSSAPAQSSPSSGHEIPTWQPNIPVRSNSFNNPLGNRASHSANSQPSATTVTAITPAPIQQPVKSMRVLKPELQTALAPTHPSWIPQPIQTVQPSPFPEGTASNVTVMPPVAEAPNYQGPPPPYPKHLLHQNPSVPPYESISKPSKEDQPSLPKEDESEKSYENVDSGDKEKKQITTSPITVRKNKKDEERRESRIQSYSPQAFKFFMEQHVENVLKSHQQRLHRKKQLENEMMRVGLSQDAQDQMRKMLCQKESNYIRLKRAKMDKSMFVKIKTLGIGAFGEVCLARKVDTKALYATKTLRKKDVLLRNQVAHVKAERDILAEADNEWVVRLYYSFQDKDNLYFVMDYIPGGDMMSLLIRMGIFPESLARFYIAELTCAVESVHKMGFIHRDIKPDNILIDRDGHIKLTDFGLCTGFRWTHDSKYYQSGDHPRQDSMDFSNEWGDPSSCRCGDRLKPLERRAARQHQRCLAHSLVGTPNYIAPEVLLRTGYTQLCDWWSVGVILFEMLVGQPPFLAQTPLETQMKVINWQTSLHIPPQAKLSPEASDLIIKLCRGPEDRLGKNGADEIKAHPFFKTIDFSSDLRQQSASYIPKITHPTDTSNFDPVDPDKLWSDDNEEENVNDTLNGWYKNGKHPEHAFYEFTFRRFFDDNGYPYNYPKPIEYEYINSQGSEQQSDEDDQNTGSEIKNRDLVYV
LATS1, sequence (Q7L9L4 whole entry partner, looked up): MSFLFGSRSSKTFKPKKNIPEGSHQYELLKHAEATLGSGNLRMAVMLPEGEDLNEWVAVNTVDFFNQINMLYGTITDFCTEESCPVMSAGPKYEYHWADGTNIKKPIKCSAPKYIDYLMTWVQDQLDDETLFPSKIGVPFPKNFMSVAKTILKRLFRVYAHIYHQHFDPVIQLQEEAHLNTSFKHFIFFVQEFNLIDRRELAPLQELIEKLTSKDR

One may read the IC50 as the concentration that inhibits the measured activity by half. Higher therefore signals lower potency. In general, EC50 refers to the concentration needed to bring the measured effect to its halfway point. High values mean a need for much substance, low ones an effect from little substance. As for `CN(C)c1nc(-c2ccncc2)nc2cnccc12` [Example 88, N,N-dimethyl-2-(pyridin-4-yl)pyrido[3,4-d]pyrimidin-4-amine], the IC50 at LATS1 amounted to 0.037 µM; in experiment [2] it was 69.8 µM. This molecule also came in with an EC50 in experiment [1] of 29.3 µM.
For `Cc1ccccc1Nc1nc(-c2ccncc2)nc2cnccc12` [Example 89, N-(2-methylphenyl)-2-(pyridin-4-yl)pyrido[3,4-d]pyrimidin-4-amine] the same measures were 0.044 µM, > 100 µM and > 100 µM.
Regarding `COc1ccc(Nc2nc(-c3ccncc3)nc3cnccc23)cc1` [Example 91, N-(4-methoxyphenyl)-2-(pyridin-4-yl)pyrido[3,4-d]pyrimidin-4-amine], the IC50 is 0.148 µM against LATS1 and > 10 µM in experiment [2]. The EC50 in experiment [1] was > 20 µM.
Take `Fc1cccc(Nc2nc(-c3ccncc3)nc3cnccc23)c1` [Example 95, N-(3-fluorophenyl)-2-(pyridin-4-yl)pyrido[3,4-d]pyrimidin-4-amine]: the figures for the 50% inhibitory concentration (IC50) (at LATS1; in experiment [2]) were > 1.44 µM and > 10 µM, respectively. In addition, the EC50 in experiment [1] was > 20 µM.
`CC(C)(CNC(=O)OC(C)(C)C)Nc1nc(-c2ccncc2)nc2cnccc12` [Example 100, Tert-butyl N-(2-methyl-2-{[2-(pyridin-4-yl)pyrido[3,4-d]pyrimidin-4-yl]amino}propyl)carbamate]: the IC50 against LATS1 was 0.004 µM; in experiment [2] it was 11.6 µM. Further, a half-maximal effect in experiment [1] (EC50) was put at 4.83 µM.
On to `CC(C)CNc1nc(-c2ccncc2)nc2cnccc12` [Example 103, N-(2-methylpropyl)-2-(pyridin-4-yl)pyrido[3,4-d]pyrimidin-4-amine], for which the IC50 on LATS1 was determined as 0.002 µM; in experiment [2], 2.64 µM. Further, a half-maximal effect in experiment [1] (EC50) was put at 2.27 µM.
`CC(C)(CC#N)Nc1nc(-c2ccncc2)nc2cnccc12` [Example 104, 3-methyl-3-{[2-(pyridin-4-yl)pyrido[3,4-d]pyrimidin-4-yl]amino}butanenitrile]: the values for the IC50 (on LATS1; in experiment [2]) were 0.005 µM and 2.6 µM, respectively. The same molecule showed an EC50 in experiment [1] of 5.19 µM.
Turning to `NCCCCCCNc1nc(-c2ccncc2)nc2cnccc12` [Example 105, N-(6-aminohexyl)-2-(pyridin-4-yl)pyrido[3,4-d]pyrimidin-4-amine], the IC50 turned out to be 0.001 µM at LATS1 and 19.9 µM in experiment [2]. For the same molecule, the EC50 in experiment [1] was > 20 µM.
On to `NCCCCNc1nc(-c2ccncc2)nc2cnccc12` [Example 106, N-(4-aminobutyl)-2-(pyridin-4-yl)pyrido[3,4-d]pyrimidin-4-amine], for which the IC50 on LATS1 is 0.003 µM; in experiment [2], 14.2 µM. Besides, in experiment [1], the EC50 is > 20 µM.
The matching figures for `CC(C)(C#N)Nc1nc(-c2ccncc2)nc2cnccc12` [Example 107, 2-methyl-2-{[2-(pyridin-4-yl)pyrido[3,4-d]pyrimidin-4-yl]amino}propanenitrile]: 0.008 µM, 31.2 µM and 20 µM.
The matching figures for `CC1CCCCN1CC(C)(C)Nc1nc(-c2ccncc2)nc2cnccc12` (stereo not drawn) [Example 108, N-[2-methyl-1-(2-methylpiperidin-1-yl)propan-2-yl]-2-(pyridin-4-yl)pyrido[3,4-d]pyrimidin-4-amine]: 0.027 µM, 11.8 µM and > 19.3 µM.
As to `Cc1[nH]c2ncccc2c1-c1nc(NC(C)(C)C)c2ccncc2n1` [Example 114, N-tert-butyl-2-{2-methyl-1H-pyrrolo[2,3-b]pyridin-3-yl}pyrido[3,4-d]pyrimidin-4-amine], the IC50 came out at 0.002 µM against LATS1 and 0.565 µM in experiment [2]. Besides, the EC50 in experiment [1] came to 1.33 µM.
In the case of `CCN(c1nc(-c2ccncc2F)nc2cnccc12)C(C)C` [Example 120, N-ethyl-2-(3-fluoropyridin-4-yl)-N-(propan-2-yl)pyrido[3,4-d]pyrimidin-4-amine], the figures for the IC50 (against LATS1; in experiment [2]) were 0.01 µM and 2.14 µM, respectively. Further, the EC50 in experiment [1] was determined as 2.93 µM.
With `CCN(c1nc(-c2ccncc2C)nc2cnccc12)C(C)C` [Example 123, N-ethyl-2-(3-methylpyridin-4-yl)-N-(propan-2-yl)pyrido[3,4-d]pyrimidin-4-amine], the results for the IC50 (at LATS1; in experiment [2]) were 0.018 µM and 9.45 µM, respectively. The same molecule returned an EC50 in experiment [1] of 9.2 µM.
For `COCC(C)(C)Nc1nc(-c2ccncc2Cl)nc2cnccc12` [Example 124, 2-(3-chloropyridin-4-yl)-N-(1-methoxy-2-methylpropan-2-yl)pyrido[3,4-d]pyrimidin-4-amine] the same measures were 0.022 µM, 8.01 µM and 12 µM.
As to `Cc1n[nH]cc1-c1nc(NC(C)(C)C(F)(F)F)c2ccncc2n1` [Example 135, 2-(3-methyl-1H-pyrazol-4-yl)-N-(1,1,1-trifluoro-2-methylpropan-2-yl)pyrido[3,4-d]pyrimidin-4-amine], the IC50 was found to be 0.002 µM against LATS1 and 0.488 µM in experiment [2]. The molecule also yielded an EC50 in experiment [1] of 0.85 µM.
On to `C[C@@H](N(C)c1nc(-c2ccncc2F)nc2cnccc12)C(F)(F)F` [Example 137, 2-(3-fluoropyridin-4-yl)-N-methyl-N-[(2R)-1,1,1-trifluoropropan-2-yl]pyrido[3,4-d]pyrimidin-4-amine], for which the figures for the IC50 (at LATS1; in experiment [2]) were 0.022 µM and 35.5 µM, respectively. Further, in experiment [1], the EC50 was > 17.8 µM.
Consider `CC1(Nc2nc(-c3ccnc(N)c3)nc3cnccc23)CC1` [Example 138, 4-{4-[(1-methylcyclopropyl)amino]pyrido[3,4-d]pyrimidin-2-yl}pyridin-2-amine], for which the IC50 at LATS1 was found to be 0.002 µM; in experiment [2] it was 3.37 µM. Further, the EC50 in experiment [1] turned out to be 9.07 µM.
Turning to `CC1(Nc2nc(-c3ccncc3C#N)nc3cnccc23)CC1` [Example 141, 4-{4-[(1-methylcyclopropyl)amino]pyrido[3,4-d]pyrimidin-2-yl}pyridine-3-carbonitrile], the IC50 against LATS1 is 0.004 µM; in experiment [2], 13.6 µM. In addition, the EC50 in experiment [1] is > 10 µM.
The matching figures for `CCCNc1nc(-c2c(C)[nH]c3ncccc23)nc2cnccc12` [Example 142, 2-{2-methyl-1H-pyrrolo[2,3-b]pyridin-3-yl}-N-propylpyrido[3,4-d]pyrimidin-4-amine]: 0.006 µM, > 100 µM and > 28 µM.
`CC1(Nc2nc(-c3ccc4[nH]ncc4c3)nc3cnccc23)CC1` [Example 143, 2-(1H-indazol-5-yl)-N-(1-methylcyclopropyl)pyrido[3,4-d]pyrimidin-4-amine]: the IC50 at LATS1 is 0.007 µM; in experiment [2], > 10 µM. For the same molecule, the EC50 in experiment [1] was > 20 µM.
On to `CC(C)(Nc1nc(-c2c[nH]nc2C(F)(F)F)nc2cnccc12)C(F)(F)F` [Example 145, N-(1,1,1-trifluoro-2-methylpropan-2-yl)-2-[3-(trifluoromethyl)-1H-pyrazol-4-yl]pyrido[3,4-d]pyrimidin-4-amine], for which the IC50 was 0.012 µM against LATS1 and > 100 µM in experiment [2]. Also, the EC50 in experiment [1] was found to be 9.31 µM.
For `CC1(Nc2nc(-c3c(F)cncc3F)nc3cnccc23)CC1` [Example 147, 2-(3,5-difluoropyridin-4-yl)-N-(1-methylcyclopropyl)pyrido[3,4-d]pyrimidin-4-amine] the same measures were 0.069 µM, > 10 µM and > 20 µM.
With `CC1(Nc2nc(-c3cncs3)nc3cnccc23)CC1` [Example 149, N-(1-methylcyclopropyl)-2-(1,3-thiazol-5-yl)pyrido[3,4-d]pyrimidin-4-amine], the figures for the IC50 (on LATS1; in experiment [2]) were 0.171 µM and > 10 µM, respectively. Further, in experiment [1], the EC50 is > 20 µM.
`Cc1noc(C)c1-c1nc(NC2(C)CC2)c2ccncc2n1` [Example 153, 2-(dimethyl-1,2-oxazol-4-yl)-N-(1-methylcyclopropyl)pyrido[3,4-d]pyrimidin-4-amine]: the IC50 on LATS1 is > 5 µM; in experiment [2], > 10 µM. In experiment [1], the EC50 was > 20 µM.
`CCCNc1nc(-n2ccc3ncccc32)nc2cnccc12` [Example 156, N-propyl-2-{1H-pyrrolo[3,2-b]pyridin-1-yl}pyrido[3,4-d]pyrimidin-4-amine]: the figures for the IC50 (against LATS1; in experiment [2]) were 0.006 µM and > 100 µM, respectively. In addition, a half-maximal effect in experiment [1] (EC50) was put at 90.1 µM.
For the molecule `CC1(Nc2nc(-c3cn[nH]c3)nc3cnccc23)CCC1` [Example 158, N-(1-methylcyclobutyl)-2-(1H-pyrazol-4-yl)pyrido[3,4-d]pyrimidin-4-amine], the results for the IC50 (against LATS1; in experiment [2]) were 0.008 µM and 11.2 µM, respectively. Moreover, the response in experiment [1] was half-maximal at 6.29 µM (EC50).
For the molecule `CC1(Nc2nc(-c3ccncn3)nc3cnccc23)CC1` [Example 159, N-(1-methylcyclopropyl)-2-(pyrimidin-4-yl)pyrido[3,4-d]pyrimidin-4-amine], the results for the IC50 (against LATS1; in experiment [2]) were 0.016 µM and > 10 µM, respectively. Also, the EC50 in experiment [1] is > 20 µM.
On to `Cc1n[nH]c(C)c1-c1nc(NC(C)(C)CC(C)(C)O)c2ccncc2n1` [Example 160, 4-{[2-(3,5-dimethyl-1H-pyrazol-4-yl)pyrido[3,4-d]pyrimidin-4-yl]amino}-2,4-dimethylpentan-2-ol], for which the IC50 against LATS1 is 0.024 µM; in experiment [2], 6.8 µM. Also, the EC50 in experiment [1] was > 20 µM.

The record behind these values is US11458138B2 (Novartis AG, priority 2017, dated 2022).
